Where “and” joins values, the source holds several entries; their conditions need not be identical. Equal entries are not always repeated.
Experiments:
[1] = target: Anti-cotinine antibody (SEQ ID NO: 11 / SEQ ID NO: 12, rabbit variable region with human IgG1 Fc domain); experiment: Binding of anti-cotinine antibody to ARM compounds by SPR, Biacore T200, 37° C. (Example 202); conditions: pH 7.4, rabbit variable region/human IgG1 Fc antibody captured on protein A
Protocol: Anti-cotinine antibodies having a heavy chain sequence of SEQ ID NO: 11 and a light chain sequence of SEQ ID NO: 12 (rabbit variable region with human IgG1 Fc domain containing a DE mutation (S239D/1332E)) were captured on one or more flow cells of a protein A sensor chip (Cytiva) using a Biacore T200 while reserving flow cell 1 as a reference. Following capture, a 3000 second wait step was included to reduce drift during compound analysis. ARM compounds of Formula (I) were then injected at 100 μL/min with 200 and 2000 second association and dissociation times. The entire experiment was run at 37° C. with running buffer containing 10 mM HEPES pH 7.4, 150 mM NaCl, 0.005% P20 and 1% DMSO. ARM compounds of Formula (I) were titrated with a top concentration of 200 nM using a 3-fold 5-point dilution series and a corresponding 5-injection buffer cycle was run for blank subtraction. Data were double referenced by subtracting the response of the reference flow cell from that of the antibody-containing flow cell and subsequently subtracting the referenced blank sensorgrams. Following compound analysis, the surface was regenerated using a 30 second injection of pH 1.5 glycine at a flow rate of 30 μL/min after which antibody was re-captured. The experiment was run using Biacore T200 control software and evaluated using Biacore T200 Evaluation software. Curves were fit with a 1:1 kinetic binding model to obtain kon(1/Ms), koff(1/s), Kd (M) determined as koff/kon, and residence time determined as 1/koff. (s).
Anti-cotinine antibody was tested for binding to ARMs compounds of Formula (I) of the invention in the above assay in or more experimental runs and the results are shown in Table 5 below. Affinity is reported as a pKd value. The pKd value is the negative log of the Kd value, wherein the Kd value is the dissociation constant measured in molar (M) as noted above. For compounds tested in more than one experimental run, the pKd value is reported as an average.

[2] = target: T1, CHOK1 cells engineered to overexpress human CCR2 (Homo sapiens, UniProt P41597); experiment: Antibody dependent cellular cytotoxicity (ADCC) reporter assay (Example 199); type: cell-based; conditions: with anti-cotinine antibody SEQ ID NO: 11/12; CHOK1-human CCR2 target cells, Jurkat FcγRIIIa NFAT-luciferase reporter cells; 12-18 hours; read-out: ADCC Reporter Assay pEC50 (converted)
T1 construct: expressed in transfected cells; host or cells: CHOK1 cells
Method in brief: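 CHOK1-hCCR2 target cells are co-incubated for 12–18 h with Jurkat FcγRIIIa/NFAT-luciferase reporter cells, ARM compound (1 pM–10 μM) and anti-cotinine antibody with a DE-mutant human IgG1 Fc (0.01–200 μg/mL). Luminescence is expressed as signal:background against no-compound wells; EC50 comes from nonlinear fit and is reported as pEC50, averaged across runs.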

pKd of Antibody for ARM Compound of Formula (I) [1] | SMILES | EC50 [2]
9.0985 | CN1C(=O)C[C@H](C(=O)NCCOCC(=O)NCCOCC(=O)NCCOCCC(=O)N[C@@H]2C[C@H](NC(C)(C)C)CC[C@@H]2N2CC[C@H](Nc3ncnc4ccc(C(F)(F)F)cc34)C2=O)[C@H]1c1cccnc1 [Example 103] | 1.56 nM and 0.577 nM
9.051 | CC(C)N(C)[C@@H]1CC[C@H](N2CC[C@H](Nc3ncnc4ccc(C(F)(F)F)cc34)C2=O)[C@H](NC(=O)COCCNC(=O)CCOCCNC(=O)COCCNC(=O)[C@H]2CC(=O)N(C)[C@@H]2c2cccnc2)C1 [Example 104, (2S,3S)-N-(18-(((1R,2S,5R)-5-(Isopropyl(methyl)amino)-2-((S)-2-oxo-3-((6-(trifluoromethyl)quinazolin-4-yl)amino)pyrrolidin-1-yl)cyclohexyl)amino)-5,12,18-trioxo-3,9,16-trioxa-6,13-diazaoctadecyl)-1-methyl-5-oxo-2-(pyridin-3-yl)pyrrolidine-3-carboxamide] | 2.28 nM
8.951 | CC(C)N(C)[C@@H]1CC[C@H](N2CC[C@H](Nc3ncnc4ccc(C(F)(F)F)cc34)C2=O)[C@H](NC(=O)COCCNC(=O)[C@H]2CC[C@@H](NC(=O)CCOCCNC(=O)[C@H]3CC(=O)N(C)[C@@H]3c3cccnc3)CC2)C1 [Example 109] | 0.17 nM

The next lines start with the compound.

SMILES | pKd of Antibody for ARM Compound of Formula (I) [1] | EC50 [2]
CC(C)N(C)[C@@H]1CC[C@H](N2CC[C@H](Nc3ncnc4ccc(C(F)(F)F)cc34)C2=O)[C@H](Nc2c(NCCOCCOCCOCCOCCOCCNC(=O)[C@H]3CC(=O)N(C)[C@@H]3c3cccnc3)c(=O)c2=O)C1 [Example 85, (2S,3S)-N-(17-((2-(((1R,2S,5R)-5-(Isopropyl(methyl)amino)-2-((S)-2-oxo-3-((6-(trifluoromethyl)quinazolin-4-yl)amino)pyrrolidin-1-yl)cyclohexyl)amino)-3,4-dioxocyclobut-1-en-1-yl)amino)-3,6,9,12,15-pentaoxaheptadecyl)-1-methyl-5-oxo-2-(pyridin-3-yl)pyrrolidine-3-carboxamide] | 9.6885 | 8.24 nM
CC(C)N(C)[C@@H]1CC[C@H](N2CC[C@H](Nc3ncnc4ccc(C(F)(F)F)cc34)C2=O)[C@H](NC(=O)[C@H]2CC[C@@H](NC(=O)CCOCCNC(=O)COCCNC(=O)[C@H]3CC(=O)N(C)[C@@H]3c3cccnc3)CC2)C1 [Example 98, (2S,3S)-N-(2-(2-((2-(3-(((1S,4s)-4-(((1R,2S,5R)-5-(Isopropyl(methyl)amino)-2-((S)-2-oxo-3-((6-(trifluoromethyl)quinazolin-4-yl)amino)pyrrolidin-1-yl)cyclohexyl)carbamoyl)cyclohexyl)amino)-3-oxopropoxy)ethyl)amino)-2-oxoethoxy)ethyl)-1-methyl-5-oxo-2-(pyridin-3-yl)pyrrolidine-3-carboxamide] | 9.0095 | 1 nM and 0.631 nM
CC(C)N(C)[C@@H]1CC[C@H](N2CC[C@H](Nc3ncnc4ccc(C(F)(F)F)cc34)C2=O)[C@H](NC(=O)CCOCCNC(=O)[C@H]2CC[C@H](NC(=O)COCCNC(=O)[C@H]3CC(=O)N(C)[C@@H]3c3cccnc3)CC2)C1 [Example 108] | 8.9855 | 0.0501 nM
CC(C)N(C)[C@@H]1CC[C@H](N2CC[C@H](Nc3ncnc4ccc(C(F)(F)F)cc34)C2=O)[C@H](NC(=O)CCOCCNC(=O)[C@H]2CC[C@@H](NC(=O)CCOCCNC(=O)[C@H]3CC(=O)N(C)[C@@H]3c3cccnc3)CC2)C1 [Example 110] | 8.9085 | 0.167 nM
